Values belong to the compound of their own block, whether it stands above or below them.
Key:
SpCas9 [1] = biological target: T1, SpCas9 (Streptococcus pyogenes serotype M1, UniProt Q99ZW2); experiment: Inhibition of SpCas9 nuclease activity in EGFP/iCas9/gRNA-EGFP reporter 293T cells (flow cytometry); assay type: cell-based; parameters: expressed in transfected cells; host or cells: H2AX-EGFP HEK293T cells, lentiviral transduction, doxycycline-induced
Excerpt: The H2AX-EGFP 293T cell line was first generated using the previously reported MMEJ-mediated CRIS-PITCh system. Briefly, we cloned two gRNAs (Supplementary Table S3) that respectively target H2AX gene and the PITCh vector into the px330 plasmid (Addgene, #42230). The PITCh vector contains a pair of 20-bp homologous sequences targeting the upstream and downstream regions of the H2AX gRNA cleavage site, and the SFB-EGFP expression cassette. The three plasmids were co-transfected into 293T cells at an equimolar ratio. GFP-positive cells were sorted by FACS and individually expanded to isolate single clones for genomic DNA extraction and PCR verification of successful knock-in (KI) of the SFB-EGFP cassette into 5′-end of first exon of the H2AX gene. The selected H2AX-EGFP 293T cell clone was subsequently infected with lentiviruses encoding tetracycline-inducible SpCas9 (iCas9). After drug selection, individual clones were again expanded and verified for inducible Cas9 expression. The selected clone was subsequently infected with lentivirus encoding a gRNA that targets EGFP. Puromycin-resistant clones ([…], Thermo Fisher Scientific) were then isolated after >7 days for further analysis.

SpCas9 [2] = biological target: T1, SpCas9; experiment: SpCas9 in vitro DNA cleavage assay; assay type: biochemical; parameters: His6 (N); TEV site (N); made in house; host or cells: E. coli BL21 Star (DE3)
Experimental: The assay was carried out in NEBuffer 3 (New England Biolabs, Ipswich, MA, USA). First, 19.2 μL of the SpCas9–gRNA (58.8 nM) mixture was incubated with 2.4 μL of various compounds (dissolved in DMSO) at desired concentrations (0.1–2 mM) at room temperature for 10 min. Then, 2.4 μL of 3.48 nM ApaI-linearized px458 plasmid was added for further incubation at 37 °C for 60 min. The reaction was terminated by adding 0.5 μL Proteinase K (20 mg/mL) (Invitrogen) and incubation at 55 °C for 15 min. The reaction products were resolved on a 0.7% TAE agarose gel, stained with Gel Red (Biotium, Fremont, CA, USA). Then the products were visualized by Chemidoc XRS plus system (Bio-Rad, Hercules, CA, USA), and band intensities were quantified using ImageJ software (National Institutes of Health developed; Bethesda, MD, USA). The inhibition efficiency in the cleavage assays was calculated using the following equation: E = (C1 − C2)/C1 × 100%, where E is the inhibition efficiency, and C1 and C2 are the cleavage rate of the DMSO group and compound treated group, respectively.
The cleavage rate was calculated using the following equation:C = (B1 + B2)/(B0 + B1 + B2) × 100%, where C is the cleavage rate, B0, B1, and B2 are the band intensities of uncleaved products, upper cleaved products, and lower cleaved products, respectively.

[3] = system: EGFP expression in uninduced reporter 293T cells; experiment: EGFP expression in uninduced reporter 293T cells; assay type: cell-based, human; details: for effect on EGFP expression in uninduced cells: 40 μM
Experimental: The reporter 293T cells were seeded into 96-well plates at a density of 10,000 cells per well and cultured overnight before the addition of DMSO alone or various compounds (in DMSO solution) at appropriate concentrations (0.125–100 μM) with or without 2 μg/mL doxycycline for an additional 72 h of incubation. The cells were then harvested for analysis with the CytoFLEX flow cytometer (Beckman Coulter, Brea, CA, USA) or analyzed by western blot with antibodies as indicated. […] The inhibiting efficiency in reporter 293T cells was calculated using the following equation: E’ = (P2 − P1)/(P0 − P1) × 100%, where E’ is the inhibiting efficiency in reporter 293T cells, and P0, P1, and P2 are the GFP positive cell ratio of the uninduced group, Dox and DMSO treated control group, and Dox and compound treated group, respectively.

NotI = NotI in vitro cleavage assay; assay type: biochemical; details: compound 200 μM
Experimental: (§1) In vitro cleavage experiments used commercial restriction enzymes (Thermo Fisher Scientific). The restriction enzyme NotI or XbaI (0.1 μL) was mixed with the compounds in a FastDigest buffer (Thermo Fisher Scientific). It was then incubated at room temperature for 10 min, and an ApaI-linearized px458 plasmid was added and reacted at 37 °C for 15 min. The samples were mixed with a DNA loading buffer. The cleavage products were electrophoresed on 1% TAE agarose gel and imaged using a Bio-Rad gel imager.

XbaI = XbaI in vitro cleavage assay; assay type: biochemical; details: compound 200 μM
Experimental: as §1

[4] = system: Streptococcus pyogenes Cas9 (SpCas9); details: inhibits SpCas9 by blocking its binding to DNA; ref [33]; cited from earlier work

T1 sequence (Q99ZW2 whole entry): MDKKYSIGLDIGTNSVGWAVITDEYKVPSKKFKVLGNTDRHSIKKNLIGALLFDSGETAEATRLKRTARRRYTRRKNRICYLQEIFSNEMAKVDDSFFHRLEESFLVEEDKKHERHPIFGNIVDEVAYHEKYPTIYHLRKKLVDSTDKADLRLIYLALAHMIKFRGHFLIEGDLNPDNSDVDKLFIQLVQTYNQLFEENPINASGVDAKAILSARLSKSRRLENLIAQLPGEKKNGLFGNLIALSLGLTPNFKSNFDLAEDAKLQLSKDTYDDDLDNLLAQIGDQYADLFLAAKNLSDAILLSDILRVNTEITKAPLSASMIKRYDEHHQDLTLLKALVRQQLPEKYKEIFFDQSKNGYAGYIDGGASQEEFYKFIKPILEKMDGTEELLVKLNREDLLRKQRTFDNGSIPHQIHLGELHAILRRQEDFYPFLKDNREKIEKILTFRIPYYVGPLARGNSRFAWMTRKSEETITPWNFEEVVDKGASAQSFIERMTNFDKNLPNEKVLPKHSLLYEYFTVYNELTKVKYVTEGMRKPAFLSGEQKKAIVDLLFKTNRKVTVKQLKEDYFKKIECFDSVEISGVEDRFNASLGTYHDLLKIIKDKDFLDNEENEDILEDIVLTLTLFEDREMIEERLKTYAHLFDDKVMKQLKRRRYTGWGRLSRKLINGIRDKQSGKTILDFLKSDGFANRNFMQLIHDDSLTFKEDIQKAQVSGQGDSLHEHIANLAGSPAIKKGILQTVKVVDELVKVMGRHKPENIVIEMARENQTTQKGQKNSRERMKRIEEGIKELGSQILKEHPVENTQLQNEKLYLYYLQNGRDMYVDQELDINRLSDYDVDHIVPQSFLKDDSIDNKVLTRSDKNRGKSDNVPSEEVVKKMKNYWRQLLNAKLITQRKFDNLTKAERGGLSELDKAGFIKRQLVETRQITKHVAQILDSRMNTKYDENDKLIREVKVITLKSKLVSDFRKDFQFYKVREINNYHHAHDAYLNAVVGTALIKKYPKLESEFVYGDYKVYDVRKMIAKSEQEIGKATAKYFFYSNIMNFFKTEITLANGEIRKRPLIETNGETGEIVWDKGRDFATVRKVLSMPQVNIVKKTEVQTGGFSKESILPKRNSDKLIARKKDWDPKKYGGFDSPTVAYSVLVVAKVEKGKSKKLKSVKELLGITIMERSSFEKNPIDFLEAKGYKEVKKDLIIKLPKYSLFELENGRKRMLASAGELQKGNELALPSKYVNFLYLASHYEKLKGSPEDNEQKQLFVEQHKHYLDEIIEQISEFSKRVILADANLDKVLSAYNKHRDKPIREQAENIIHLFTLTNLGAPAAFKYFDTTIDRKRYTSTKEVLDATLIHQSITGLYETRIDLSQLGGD

Compound: 1-(2-(4-nitrophenyl) hydrazono)-4-bromo-acetophenone [C12]
efficiency of SpCas9 inhibition in reporter cells (SpCas9 [1]; 100 μM, Dox 2 μg/mL, 72 h): 17.1% | inhibition rate, in vitro SpCas9 cleavage (SpCas9 [2]; compound 200 μM, SpCas9–gRNA 58.8 nM, linearized plasmid 3.48 nM): 84% | effect on EGFP expression in the absence of Dox induction ([3]; 100 μM, reporter cells, no Dox): no effects | activity of NotI (NotI): not affected | activity of XbaI (XbaI): not affected

melting point: 190.3 to 191.7 °C
Compound: CCC(=O)C=NNc1ccc([N+](=O)[O-])cc1 [C9, 1-(2-(4-nitrophenyl) hydrazono)butanone]

Compound: O=C(C=NNc1ccc(Cl)cc1)c1ccc(Br)cc1 [C12b, 1-(4-bromophenyl)-2-(2-(4-chlorophenyl)hydrazono)ethanone]
inhibitory activity in in vitro SpCas9 cleavage (in words) (SpCas9 [2]; compound 200 μM): strong inhibitory activities | inhibition at 200 µM (SpCas9 [2]; read-out: inhibition rate, in vitro SpCas9 cleavage): 89% | melting point: 235.2 to 237.2 °C

Compound: O=C(C=NNc1cc([N+](=O)[O-])ccc1O)c1ccc(Br)cc1 [C12c, 1-(4-bromophenyl)-2-(2-(2-hydroxy-5-nitrophenyl)hydrazono)ethanone]
inhibition at 40 µM (SpCas9 [1]; HEK-293T, read-out: SpCas9 inhibition in reporter cells): ~50% | inhibitory activity in in vitro SpCas9 cleavage (in words) (SpCas9 [2]; compound 200 μM): weakly inhibited | effect on EGFP expression in uninduced reporter 293T cells ([3]; uninduced, concentration not given): did not negatively affect | melting point: 246.6 to 247.2 °C

Compound: O=C(C(=NNc1ccc([N+](=O)[O-])cc1)n1cncn1)c1ccc(F)cc1F [C12d, 1-(2,4-difluorophenyl)-2-(2-(4-nitrophenyl)hydrazono)-2-(1H-1,2,4-triazol-1-yl)ethanone]
inhibitory activity in in vitro SpCas9 cleavage (in words) (SpCas9 [2]; compound 200 μM): weakly inhibited

Compound: O=C1CCCC/C1=N/Nc1ccc(N2CCCCC2)cc1 [SP5]
SpCas9 inhibition in reporter cells (SpCas9 [1]; 40 μM, Dox 2 μg/mL, 72 h): less than 50%

Compound: O=C1CCCC/C1=N\Nc1ccc([N+](=O)[O-])cc1 [SP6]
SpCas9 inhibition in reporter cells (SpCas9 [1]; 40 μM, Dox 2 μg/mL, 72 h): less than 50%

Compound: COc1ccc(C(=O)Oc2ccccc2/C=N\Nc2ccc([N+](=O)[O-])cc2)cc1 [SP8]
SpCas9 inhibition in reporter cells (SpCas9 [1]; 40 μM, Dox 2 μg/mL, 72 h): less than 50%

Compound: O=C1CCCC/C1=N/Nc1ccc(OC2CCCCC2)cc1 [SP9]
SpCas9 inhibition in reporter cells (SpCas9 [1]; 10 μM, Dox 2 μg/mL, 72 h): less than 50% | SpCas9 inhibition in reporter cells (SpCas9 [1]; 40 μM, Dox 2 μg/mL, 72 h): > 50%

Compound: CCCCOC(=O)c1ccc(NN=c2c(=O)c3ccccc3c2=O)cc1 [SP11]
SpCas9 inhibition in reporter cells (SpCas9 [1]; 40 μM, Dox 2 μg/mL, 72 h): less than 50%

Compound: Cc1cccc(N/N=C(/C#N)C(=O)c2ccc(Br)cc2)c1 [SP12]
SpCas9 inhibition in reporter cells (SpCas9 [1]; 10 μM, Dox 2 μg/mL, 72 h): less than 50% | SpCas9 inhibition in reporter cells (SpCas9 [1]; 40 μM, Dox 2 μg/mL, 72 h): > 50%

Compound: COc1ccc(C(=O)/C(C#N)=N/Nc2ccccc2[N+](=O)[O-])cc1 [SP14]
SpCas9 inhibition in reporter cells (SpCas9 [1]; 10 μM, Dox 2 μg/mL, 72 h): 50% | effect on EGFP expression in uninduced cells ([3]; uninduced): reduce EGFP expression (albeit slightly)

Compound: Cc1ccc(C(=O)/C(C#N)=N\Nc2ccc([N+](=O)[O-])cc2)cc1 [SP15]
SpCas9 inhibition in reporter cells (SpCas9 [1]; 10 μM, Dox 2 μg/mL, 72 h): 50% | effect on EGFP expression in uninduced cells ([3]; uninduced): reduce EGFP expression (albeit slightly)

Compound: O=C1CCCC/C1=N\Nc1ccc(OCc2ccccc2)cc1 [SP19]
SpCas9 inhibition in reporter cells (SpCas9 [1]; 40 μM, Dox 2 μg/mL, 72 h): less than 50%

Compound: COc1cc(Cl)ccc1N=NC1C(=O)N(c2ccccc2)N=C1C (stereo not drawn) [SP28]
SpCas9 inhibition in reporter cells (SpCas9 [1]; 40 μM, Dox 2 μg/mL, 72 h): less than 50%

Compound: CC1=NN(c2ccccc2)C(=O)C1N=Nc1nc2ccccc2s1 (stereo not drawn) [SP29]
SpCas9 inhibition in reporter cells (SpCas9 [1]; 10 μM, Dox 2 μg/mL, 72 h): 50% | effect on EGFP expression in uninduced cells ([3]; uninduced): reduce EGFP expression (albeit slightly)

Compound: O=C(Oc1ccc(/C=N/Nc2ccccc2)cc1)c1cc([N+](=O)[O-])cc([N+](=O)[O-])c1 [SP32]
SpCas9 inhibition in reporter cells (SpCas9 [1]; 10 μM, Dox 2 μg/mL, 72 h): less than 50% | SpCas9 inhibition in reporter cells (SpCas9 [1]; 40 μM, Dox 2 μg/mL, 72 h): > 50%

Compound: Cc1nc2ccc(N=NC3=C(O)CCCC3=O)cc2s1 [SP33]
SpCas9 inhibition in reporter cells (SpCas9 [1]; 40 μM, Dox 2 μg/mL, 72 h): less than 50%

Compound: CCOC(=O)c1oc2c(c1C)/C(=N\Nc1ccc([N+](=O)[O-])cc1)CCC2 [SP34]
SpCas9 inhibition in reporter cells (SpCas9 [1]; 40 μM, Dox 2 μg/mL, 72 h): less than 50%

Compound: CC1(C)CC(=O)C(N=Nc2ccc3ncsc3c2)=C(O)C1 [SP36]
SpCas9 inhibition in reporter cells (SpCas9 [1]; 40 μM, Dox 2 μg/mL, 72 h): less than 50%

Compound: BRD0539
IC50 [4]: 22 µM
